Structures can show the parent of a compound that is named as a salt.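 The compound was tested at five concentrations on cells cultured in 96-well plates, with a 48-hour exposure period. GI50: concentration for 50% inhibition of growth.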 The source made the active and inactive calls. Rule as the data show it: active = GI50 up to about 1.1 µM and inactive = higher. A value given as a limit tells only on which side of the number the result lay.

Among the test systems are MDA-N; MDA-MB-435; BT-549; HOP-18; LXFL 529; KM-20L2; DMS-273.
Assay in all cases: NCI tumour cell line growth inhibition, 48 h

As for `COc1ccc(C2C3=C(COC3=O)Oc3cc4c(cc32)OCO4)cc1OC` (stereo not drawn), the GI50 is 0.135 µM (active) with MDA-N and 0.123 µM (active) with MDA-MB-435.
Turning to `CCOP1(=O)C=C(Sc2ccc([N+](=O)[O-])cc2[N+](=O)[O-])C(C)(C)O1` (stereo not drawn), the GI50 in the assay on MDA-N was 5.07 µM (inactive); in the assay with MDA-MB-435 it was 11.4 µM (inactive); in the assay with BT-549 it was 17.5 µM (inactive).
For `COC(=O)c1sc2nc(Nc3ccccc3)/c(=N\c3ccccc3)sc2c1C`, the GI50 is 66.8 µM (inactive) in the assay with MDA-N and > 100 µM (inactive) with MDA-MB-435.
`COC(=O)C(=O)C1(CCC(C)=O)c2ccccc2-c2ccccc21`: the GI50 with HOP-18 was 71.6 µM (inactive); in the assay with LXFL 529, 47.1 µM (inactive); with KM-20L2, > 100 µM (inactive); in the assay on DMS-273 it was 43.6 µM (inactive).
In the case of `COc1ccccc1NC(=O)O/N=C(/Cl)C(C)C`, the GI50 with MDA-N was 13.6 µM (inactive); in the assay with BT-549, 3.48 µM (inactive).
For `CCCN(CCCCN1C(=O)c2ccccc2C1=O)CC1COc2ccccc2O1` (stereo not drawn), the GI50 in the assay with MDA-N, in the assay on MDA-MB-435 and in the assay on BT-549 was > 100 µM (inactive) in each case.
For the compound `COc1cccc2c(Nc3ccc(S(=O)(=O)NC(C)=O)cc3)c3ccc([N+](=O)[O-])cc3nc12`, the GI50 with MDA-N was 36.6 µM (inactive); in the assay on MDA-MB-435, 31.6 µM (inactive); with BT-549, 26.3 µM (inactive).
For the compound `CC1(C)CCOC(=O)C(Cl)CC1Cl` (stereo not drawn), the GI50 in the assay on MDA-N and with MDA-MB-435 was > 100 µM (inactive) each time.
As for `COc1ccc2[nH]c3c(C)c4ccnc(NCCCN(C)CCCN)c4c(C)c3c2c1`, the GI50 in the assay on MDA-N was 0.214 µM (active); in the assay on MDA-MB-435 it was 0.195 µM (active); with BT-549 it was 1.76 µM (inactive).
Consider `Fc1ccc2c3c([nH]c2c1)CCNC3`, for which the GI50 in the assay on MDA-MB-435 was 77.1 µM (inactive).
Consider `C=C(Cl)C(Cl)(CBr)CCC(Cl)C(C)(C)Cl` (stereo not drawn), for which the figures for the GI50 in the assay with MDA-N, with MDA-MB-435 and in the assay on BT-549 were 1.81 µM (inactive), 2.05 µM (inactive) and 5.47 µM (inactive), respectively.
Turning to `CC(C)=CCc1c(O)c(CC=C(C)C)c2oc3c(c(=O)c2c1O)C(C=C(C)C)Oc1cc(O)ccc1-3` (stereo not drawn), the GI50 in the assay on MDA-N was 3.32 µM (inactive); with MDA-MB-435, 3.53 µM (inactive); in the assay with BT-549, 12.2 µM (inactive).
Consider `Oc1ccc(/N=N/c2ccc(Cl)cc2)cc1`, for which the GI50 with MDA-N is 16.9 µM (inactive); in the assay on MDA-MB-435, 14.9 µM (inactive); in the assay with BT-549 it was 15.1 µM (inactive).
As for `O=C(O)CCSC(=O)Nc1ccccc1`, the values for the GI50 in the assay with LXFL 529, in the assay on KM-20L2 and in the assay with DMS-273 were 61.9 µM (inactive), > 100 µM (inactive) and > 100 µM (inactive), respectively.
Turning to `COc1cccc(NC(=O)CC(=O)N2N=C(N(CCC#N)c3ccc(Cl)cc3)CC2c2ccccc2)c1` (stereo not drawn), the GI50 in the assay with HOP-18, in the assay on LXFL 529, in the assay with KM-20L2 and in the assay with DMS-273 was > 100 µM (inactive) each time.
Take `Oc1cc(Br)cc2cc(Br)cnc12`: the figures for the GI50 with MDA-N, with MDA-MB-435 and in the assay on BT-549 were 5.37 µM (inactive), 3.44 µM (inactive) and 4.58 µM (inactive), respectively.
In the case of `CCc1cccc(CC)c1NC(=O)C(=O)Cc1nc2ccccc2o1`, the GI50 with HOP-18, in the assay with LXFL 529 and with KM-20L2 was > 100 µM (inactive) throughout.
On to `OCC(O)C(O)C(O)c1nnn[nH]1` (stereo not drawn), for which the GI50 in the assay with LXFL 529 and in the assay with DMS-273 was > 100 µM (inactive) each time.
On to `C[n+]1c2ccccc2c(CNc2ccc(S(=O)(=O)N=C(N)N)cc2)c2ccccc21`, for which the GI50 with KM-20L2 was 13.6 µM (inactive); with DMS-273 it was 2.94 µM (inactive).
`O=C(N/N=C\c1ccc(Cl)cc1)Nc1ccc2ccccc2c1`: the GI50 in the assay on MDA-N was 86.7 µM (inactive); with MDA-MB-435 it was 49.7 µM (inactive); with BT-549 it was 56.6 µM (inactive).
Taken in the same sequence, the figures for `CCN(CC)C1=Nc2ccccc2-n2c(C)cnc2C1` were > 100 µM (inactive), > 100 µM (inactive) and > 100 µM (inactive).
In the case of `CC(=O)O[C@H]1[C@@H](OC2CCCC2(c2ccccc2)c2ccccc2)O[N+]([O-])=C[C@@]12COCc1cc3c(cc12)OCO3` (stereo partly drawn), the GI50 is 3.66 µM (inactive) with MDA-MB-435 and 23 µM (inactive) in the assay with BT-549.
In the case of `CC(=O)OCC(OC(C)=O)C(OC(C)=O)C(OC(C)=O)C(/C=N\Nc1nc2ccccc2c(=O)[nH]1)=N/Nc1nc2ccccc2c(=O)[nH]1` (stereo not drawn), the GI50 in the assay on MDA-N, in the assay with MDA-MB-435 and in the assay with BT-549 was > 100 µM (inactive) in each case.
For the compound `CCCCCC/C=C\CCCCCCCCC(=O)c1cccc(OC)c1OC`, the GI50 is 91.8 µM (inactive) in the assay on MDA-N, 84.7 µM (inactive) in the assay with MDA-MB-435 and > 100 µM (inactive) in the assay with BT-549.
For `Cc1ccc(O)c(C(c2cc(C)ccc2O)c2cc([N+](=O)[O-])ccc2O)c1`, the GI50 with MDA-MB-435 is 15 µM (inactive).
For `CC(C)(C)OC(=O)NCCCCCCC(=O)Cc1ccccc1`, the GI50 in the assay with MDA-N, with MDA-MB-435 and in the assay with BT-549 was > 100 µM (inactive) each time.
Regarding `C[N+]12C=CC=C1C(N1CCCC1)c1scc(-c3ccccc3)c12` (stereo not drawn), the GI50 with MDA-N was 18.8 µM (inactive); in the assay on MDA-MB-435, 36.2 µM (inactive); in the assay with BT-549 it was 4.25 µM (inactive).
On to `O=C1/C(=C/c2ccc(Cl)cc2)NC(=S)N1CN1CCCCC1`, for which the GI50 in the assay with MDA-N was 63 µM (inactive); in the assay on MDA-MB-435 it was 45.5 µM (inactive).
As for `CC(=O)OC1COC(n2nc(/C=C/c3ccc(Cl)cc3)c(=O)n(/N=C/c3ccccc3)c2=S)C(OC(C)=O)C1OC(C)=O` (stereo not drawn), the GI50 in the assay on MDA-N, in the assay on MDA-MB-435 and in the assay with BT-549 was > 100 µM (inactive) in each case.
As for `O=C(c1ccccc1)N1CCC(Nc2nccs2)O1` (stereo not drawn), the GI50 in the assay with MDA-MB-435 and in the assay with BT-549 was > 10 µM (inactive) throughout.
Take `CC(=O)OCC12C(OC(C)=O)C[C@@H](C)C3(CC(c4ccoc4)OC3=O)C1CCC(OC(C)=O)C21CO1` (stereo partly drawn): the GI50 in the assay on MDA-N, in the assay on MDA-MB-435 and in the assay on BT-549 was > 100 µM (inactive) in each case.
For `CC1C(c2ccccc2)OP(=O)(OC(C#N)c2ccccc2)N1C` (stereo not drawn), the GI50 with MDA-N is > 100 µM (inactive); with MDA-MB-435, 81.1 µM (inactive); in the assay on BT-549, > 100 µM (inactive).
Consider `Cc1ccc(O)c(Cc2nc3ccccc3nc2-c2cccc(Cl)c2)c1`, for which the values for the GI50 in the assay on MDA-N, in the assay on MDA-MB-435 and in the assay with BT-549 were 29.5 µM (inactive), 21.4 µM (inactive) and > 100 µM (inactive), respectively.
For `O=C1CNC(=O)/C(=C/c2c[nH]c3ccccc23)N1`, in that order: > 100 µM (inactive), > 100 µM (inactive) and > 100 µM (inactive).
Consider `Cc1cccc2nc3cccc(C(=O)NCCC[N+](C)(CCCNC(=O)c4cccc5nc6cccc(C)c6nc45)Cc4ccc([N+](=O)[O-])n4C)c3nc12`, for which the GI50 in the assay with MDA-N was 6.08 µM (inactive); in the assay with MDA-MB-435, > 27 µM (inactive); with BT-549 it was > 100 µM (inactive).
In the case of `N=C(N)NCCCC(NC(=O)OCCCCn1ccc(N)nc1=O)C(=O)O` (stereo not drawn), the GI50 with MDA-N, with MDA-MB-435 and with BT-549 was > 100 µM (inactive) each time.
Consider `COc1ccc(/N=C(/C[S+]([O-])c2ccc(C)cc2)C(F)(F)F)cc1` (stereo not drawn), for which the GI50 in the assay with MDA-N, in the assay with MDA-MB-435 and in the assay with BT-549 was > 100 µM (inactive) in each case.
Regarding `CC1=NN(c2nc(N)nc(CSc3nc4n(c(=S)n3)CCN4)n2)C(C)(C)C1`, the GI50 in the assay on MDA-MB-435 and with BT-549 was > 100 µM (inactive) each time.
With `O=c1c2cccnc2n2n1Cc1ccccc1C2`, the GI50 in the assay with MDA-N, with MDA-MB-435 and with BT-549 was > 100 µM (inactive) each time.
As for `CCN(CC)CCCNc1ccc([N+](=O)[O-])c2nc3ccccc3c(N)c12`, the GI50 in the assay on MDA-N was 0.492 µM (active); in the assay on MDA-MB-435, 1.06 µM (active); in the assay with BT-549, 1.4 µM (inactive).
Turning to `N#CC(NC12CC3CC(CC(C3)C1)C2)c1ccccc1` (stereo not drawn), the GI50 with MDA-N, with MDA-MB-435 and with BT-549 was > 100 µM (inactive) each time.
In the case of `CCOC(=O)/C(=C\NC(C)(C)C)c1nc2ccccc2[nH]1`, the GI50 in the assay on MDA-N is 22.9 µM (inactive); with MDA-MB-435, 20 µM (inactive); in the assay with BT-549, 27.9 µM (inactive).
On to `C/C(=N\NC(N)=S)c1cccs1.OB(O)c1ccccc1`, for which the GI50 in the assay on MDA-N, in the assay with MDA-MB-435 and with BT-549 was > 100 µM (inactive) each time.
On to `CC(C)=CC(=O)O[C@@H]1CC(C)(C)CC2C3=CCC4[C@]56CC[C@](O)(OC5)C(C)(C)C6CC[C@@]4(C)C3(C)CC[C@]21C(=O)O` (stereo partly drawn), for which the GI50 in the assay on MDA-N, in the assay with MDA-MB-435 and with BT-549 was > 100 µM (inactive) each time.
For `C=CCN1CCN([C@H](c2ccc(C(=O)N(CC)CC)cc2)c2cccc(OC)c2)CC1`, the GI50 in the assay with MDA-N, in the assay with MDA-MB-435 and with BT-549 was > 25 µM (inactive) each time.
With `COC1=CC(C)C2C[C@H]3O[C@H](O)C[C@H]4C(C)C(=O)C(O)C([C@@]2(C)C1=O)[C@@]34C` (stereo partly drawn), the GI50 with HOP-18, in the assay on LXFL 529 and with DMS-273 was > 100 µM (inactive) in each case.
Consider `Nc1ccn(C=C=CCO)c(=O)n1`, for which the GI50 in the assay on MDA-N, with MDA-MB-435 and in the assay on BT-549 was > 100 µM (inactive) each time.
As to `O=C1c2ccc3c4ccc5c6c(ccc(c7ccc(c2c37)C(=O)N1CCN1CCCCC1)c64)C(=O)N(CCN1CCCCC1)C5=O`, the GI50 in the assay on MDA-N, with MDA-MB-435 and in the assay with BT-549 was > 100 µM (inactive) in each case.
Take `c1cc2c(cc1NC1=NCCO1)CCC2`: the GI50 in the assay on MDA-N is 3.24 µM (inactive); with MDA-MB-435, 8.04 µM (inactive).
As for `COc1cc(-c2oc3c(OC)c(O)c(OC)c(O)c3c(=O)c2OC)cc(OC)c1OC`, the GI50 was 61.8 µM (inactive) with MDA-N, 35.4 µM (inactive) with MDA-MB-435 and 71.8 µM (inactive) in the assay on BT-549.
On to `CC(=O)Oc1ccccc1C(=O)O` [ASPIRIN], for which the GI50 with MDA-N, with MDA-MB-435 and in the assay with BT-549 was > 100 µM (inactive) each time.
On to `CCc1ccc2c(c1)N(CC(C)CN(C)C)c1ccccc1S2` (stereo not drawn) [ETYMEMAZINE HYDROCHLORIDE], for which the figures for the GI50 with MDA-N, with MDA-MB-435 and in the assay with BT-549 were 5.5 µM (inactive), 2.87 µM (inactive) and 12.9 µM (inactive), respectively.

Values taken from ChEMBL document CHEMBL1201862, “PubChem BioAssay data set” (2004).
